Assay results as given in paper PMC4279406, “Simultaneous targeting of PI3Kδ and a PI3Kδ-dependent MEK1/2-Erk1/2 pathway for therapy in pediatric B-cell acute lymphoblastic leukemia” (Oncotarget, 2014).

Columns and labels:
[1] = tested on: panel of 61 protein kinases; assay: Panel of 61 protein kinases; format: biochemical, human; conditions: 10 μM
Source text: Utilizing the crystal structure of PI3Kδ, we designed and synthesized a series of compounds in an effort to discover new potent and selective PI3Kδ inhibitors, which bind to PI3Kδ differently from CAL-101. […] The benzimidazole group of X-370 extends into the affinity pocket, where its nitrogen acts as a hydrogen bond acceptor for the primary amine of Lys779. The difluoromethyl group of X-370 points toward Pro758 in the hydrophobic affinity pocket. Instead of wedging between Met752 and Trp760, a binding mode utilized by CAL-101 to generate specificity against PI3Kδ (Figure S1), the pyrrole group of X-370 presses tightly against Trp760. These specific interactions of X-370 with p110δ confer a selective and potent inhibition of PI3Kδ. […]
In vitro kinase profile assays were analyzed by the Kinase Profiler Service (Millipore, United Kingdom) following its guidelines. […] The PI3K kinase activity was determined in the increasing concentration of ATP and X-370 with PI3-Kinase HTRF™ Assay kit (Millipore) as described previously. […]
Cell lysates were probed with indicated antibodies. The IC50 values were calculated based on relative band intensity measured with ImageQuant™ TL (GE Healthcare Life Sciences, Piscataway, NJ). […]

[2] = tested on: PI3Kβ (LPA-stimulated MEF cells); assay: LPA-induced Akt phosphorylation in MEF cells; format: cell-based, murine; conditions: up to 0.5 μM; LPA 10 μM; 1 h pre-incubation
Procedure: In fibroblasts, signals from the insulin-like growth factor 1 (IGF-1) receptor are mediated by PI3Kα, while lysophosphatidic acid (LPA) stimulates G-protein coupled receptor (GPCR) signals via PI3Kβ[26]. After being pre-incubated with X-370, murine embryonic fibroblasts cultured in serum-free medium were stimulated with IGF-1 or LPA. […] Either PI3Kδ or PI3Kγ can be activated in THP-1 monocytes dependent on the stimulating ligand, among which macrophage colony stimulating factor (M-CSF/CSF-1) activates RTK-coupled PI3Kδ, while monocyte chemoattractant protein-1 (MCP-1) activates PI3Kγ [24]. Accordingly, THP-1 cells cultured in serum-free medium were stimulated with MCP-1 or M-CSF in the presence of X-370 and phosphorylated Akt was measured.
Cell lysates were probed with indicated antibodies. The IC50 values were calculated based on relative band intensity measured with ImageQuant™ TL (GE Healthcare Life Sciences, Piscataway, NJ) (B). Data shown are mean values from three independent experiments. (C, D, E, F) X-370 blocked stimuli-triggered PI3Kδ activation. MEF cells and THP-1 were starved in serum-free medium for 12 h or 4 h respectively and X-370 were added for an additional 1 h treatment following stimulation of IGF-1 at 100 ng/ml for MEF cells (C), LPA at 10 μM for MEF cells (D), MCP-1 at 100ng/ml for THP-1 (E) and M-CSF at 50 ng/ml for THP-1 (F). […]

For O=C(N1CCCC1)N1CCC(n2cnc3c(-n4c(C(F)F)nc5ccccc54)nc(N4CCOCC4)nc32)CC1 [X-370], the “activity against all kinases of the panel” value [1] was “little activity” and the “LPA-induced Akt phosphorylation” value [2] was “partially inhibited”.
